Here are results for one compound from publication PMC7515484, “Sphingosine kinase 2 inhibitor ABC294640 suppresses neuronal excitability and inhibits multiple endogenously and exogenously expressed voltage-gated ion channels in cultured cells” (Channels, 2020).

SMILES strings stand for the structures.

The target of one experiment is T1, KV1.4 (Homo sapiens, UniProt P22459).
T1 construct: gene KCNA4; human KCNA4 cDNA in pCMV3, expressed in HEK293T cells
The experiment is described as follows: whole-cell patch clamp, persistent current, transfected HEK293T cells. Type of experiment: cell-based. Background: The patch-clamp technique gives a direct electrical read-out from membranes.

The next experiment has as its target T2, KV4.2 (Homo sapiens, UniProt Q9NZV8).
T2 construct: gene KCND2
T2 sequence (Q9NZV8 1-630): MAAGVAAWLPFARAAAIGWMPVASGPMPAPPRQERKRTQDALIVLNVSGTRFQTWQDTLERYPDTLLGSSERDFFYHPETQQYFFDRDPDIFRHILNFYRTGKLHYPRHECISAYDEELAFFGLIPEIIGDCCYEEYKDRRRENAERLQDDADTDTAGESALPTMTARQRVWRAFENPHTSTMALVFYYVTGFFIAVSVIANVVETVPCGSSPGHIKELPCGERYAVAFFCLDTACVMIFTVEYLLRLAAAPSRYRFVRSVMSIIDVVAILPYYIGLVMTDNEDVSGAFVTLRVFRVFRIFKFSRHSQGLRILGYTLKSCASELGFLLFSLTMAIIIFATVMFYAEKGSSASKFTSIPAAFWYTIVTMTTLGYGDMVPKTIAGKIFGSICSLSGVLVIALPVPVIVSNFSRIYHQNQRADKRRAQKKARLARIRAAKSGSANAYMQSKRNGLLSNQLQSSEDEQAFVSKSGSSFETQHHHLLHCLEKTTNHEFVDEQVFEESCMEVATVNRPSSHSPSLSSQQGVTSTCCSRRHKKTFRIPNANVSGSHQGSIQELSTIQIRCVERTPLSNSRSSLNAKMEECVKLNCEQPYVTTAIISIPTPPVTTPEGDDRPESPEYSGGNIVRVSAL
Described as above. The class given is cell-based.

T1 sequence (P22459 whole entry): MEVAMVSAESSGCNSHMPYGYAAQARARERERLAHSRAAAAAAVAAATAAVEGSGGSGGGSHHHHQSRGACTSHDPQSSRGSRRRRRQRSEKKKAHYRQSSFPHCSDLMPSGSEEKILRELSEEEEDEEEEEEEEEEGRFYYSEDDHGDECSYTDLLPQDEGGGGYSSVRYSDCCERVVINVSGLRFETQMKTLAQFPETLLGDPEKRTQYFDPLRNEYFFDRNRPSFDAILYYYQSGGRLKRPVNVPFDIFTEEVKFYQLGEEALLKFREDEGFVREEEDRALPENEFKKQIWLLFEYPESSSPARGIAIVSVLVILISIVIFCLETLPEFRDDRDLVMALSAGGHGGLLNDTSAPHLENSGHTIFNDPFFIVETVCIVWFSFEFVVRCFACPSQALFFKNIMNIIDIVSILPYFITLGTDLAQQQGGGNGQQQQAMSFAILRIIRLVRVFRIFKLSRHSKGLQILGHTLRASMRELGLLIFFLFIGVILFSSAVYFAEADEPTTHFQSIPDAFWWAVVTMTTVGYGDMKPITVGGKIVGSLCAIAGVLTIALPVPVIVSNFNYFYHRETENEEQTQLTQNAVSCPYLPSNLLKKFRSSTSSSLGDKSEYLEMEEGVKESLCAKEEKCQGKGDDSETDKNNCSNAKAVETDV

In general, IC50 refers to the midpoint of a concentration-inhibition curve. Low values mean higher potency, high ones lower potency. Consider `O=C(NCc1ccncc1)C12CC3CC(C1)CC(c1ccc(Cl)cc1)(C3)C2` [ABC294640], for which the values for the IC50 against KV1.4 and against KV4.2 were 2.76 ± 0.28 µM and 4.77 ± 0.68 µM, respectively.
